Species on record: Rattus norvegicus
Assay: DrugMatrix - Regimen: Daily Repeat
Assay type: toxicity, organism-based, Sprague-Dawley
Set-up: regimen Daily Repeat, gender Male, age 6-8 weeks
Conditions: in vivo, po, route oral GAVAGE, vehicle 100 % WATER; for ABSOLUTE BASOPHIL / ABSOLUTE EOSINOPHIL / ABSOLUTE LYMPHOCYTE / ABSOLUTE MONOCYTE / ABSOLUTE SEGMENTED NEUTROPHIL / BASOPHIL / EOSINOPHIL / ERYTHROCYTE COUNT / HEMATOCRIT / HEMOGLOBIN / LEUKOCYTE COUNT / LYMPHOCYTE / MEAN CORPUSCULAR HEMOGLOBIN / MEAN CORPUSCULAR HEMOGLOBIN CONCENTRATION / MEAN CORPUSCULAR VOLUME / MONOCYTE / NEUTROPHIL / NUCLEATED RED BLOOD CELLS / PLATELET COUNT: tissue Blood; for ALANINE AMINOTRANSFERASE / ALBUMIN / ALKALINE PHOSPHATASE / ASPARTATE AMINOTRANSFERASE / BLOOD UREA NITROGEN / CARBON DIOXIDE / CHLORIDE / CHOLESTEROL / CREATINE PHOSPHOKINASE / CREATININE / GLUCOSE / LACTATE DEHYDROGENASE / LIPASE / PHOSPHORUS / POTASSIUM / SODIUM / TOTAL BILIRUBIN / TOTAL PROTEIN / URIC ACID: tissue Plasma
[1] = 0.07 mg/kg, 120 h, dose level Low, time 5 day
[2] = 0.5 mg/kg, 72 h, dose level High, time 3 day
[3] = 0.5 mg/kg, 120 h, dose level High, time 5 day

In the case of Cc1cc(C(C)(C)C)c(O)c(C)c1CC1=NCCN1 [OXYMETAZOLINE], the “ABSOLUTE BASOPHIL” value [1] is reported as 0 CELLS/uL, the “ABSOLUTE EOSINOPHIL” value [1] is reported as 196 CELLS/uL and the “ABSOLUTE LYMPHOCYTE” value [1] is reported as 15823.67 CELLS/uL. For the same compound, the “ABSOLUTE MONOCYTE” value [1] was 436.67 CELLS/uL, the “ABSOLUTE SEGMENTED NEUTROPHIL” value [1] was 2110.33 CELLS/uL and the BASOPHIL [1] was 0%. The EOSINOPHIL [1] was 1%, the “ERYTHROCYTE COUNT” value [1] was 5.33 x10E6/uL and the HEMATOCRIT [1] was 33.03%. The HEMOGLOBIN [1] was 13.6 G/DL, the “LEUKOCYTE COUNT” value [1] was 18.57 x10E3/uL and the LYMPHOCYTE [1] was 85.33%. For the same compound, the “MEAN CORPUSCULAR HEMOGLOBIN” value [1] was 25.53 pg, the “MEAN CORPUSCULAR HEMOGLOBIN CONCENTRATION” value [1] was 41.13 G/DL and the “MEAN CORPUSCULAR VOLUME” value [1] was 61.93 fL. For the same compound, the MONOCYTE [1] was 2.33%, the NEUTROPHIL [1] was 11.33% and the “NUCLEATED RED BLOOD CELLS” value [1] was 0 /100WBC. For the same compound, the “PLATELET COUNT” value [1] was 1316.33 x10E3/uL, the “ALANINE AMINOTRANSFERASE” value [1] was 45.33 u/L and the ALBUMIN [1] was 4.4 G/DL. The “ALKALINE PHOSPHATASE” value [1] was 411.67 u/L, the “ASPARTATE AMINOTRANSFERASE” value [1] was 82 u/L and the “BLOOD UREA NITROGEN” value [1] was 13 mg/dL. For the same compound, the “CARBON DIOXIDE” value [1] was 29 mmol/L, the CHLORIDE [1] was 101.67 MEQ/L and the CHOLESTEROL [1] was 75.33 mg/dL. The “CREATINE PHOSPHOKINASE” value [1] was 214.67 u/L, the CREATININE [1] was 0.21 mg/dL and the GLUCOSE [1] was 167 mg/dL. The “LACTATE DEHYDROGENASE” value [1] was 203.67 u/L, the LIPASE [1] was 10.67 u/L and the PHOSPHORUS [1] was 11.53 mg/dL. For the same compound, the POTASSIUM [1] was 6.21 MEQ/L, the SODIUM [1] was 142.97 MEQ/L and the “TOTAL BILIRUBIN” value [1] was 0.13 mg/dL. For the same compound, the “TOTAL PROTEIN” value [1] was 5.97 G/DL, the “URIC ACID” value [1] was 1.73 mg/dL and the “ABSOLUTE BASOPHIL” value [2] was 0 CELLS/uL. For the same compound, the “ABSOLUTE EOSINOPHIL” value [2] was 0 CELLS/uL, the “ABSOLUTE LYMPHOCYTE” value [2] was 15583 CELLS/uL and the “ABSOLUTE MONOCYTE” value [2] was 59.33 CELLS/uL. The “ABSOLUTE SEGMENTED NEUTROPHIL” value [2] was 1491 CELLS/uL, the BASOPHIL [2] was 0% and the EOSINOPHIL [2] was 0%. The “ERYTHROCYTE COUNT” value [2] was 5.61 x10E6/uL, the HEMATOCRIT [2] was 35.17% and the HEMOGLOBIN [2] was 13.97 G/DL. The “LEUKOCYTE COUNT” value [2] was 17.13 x10E3/uL, the LYMPHOCYTE [2] was 91% and the “MEAN CORPUSCULAR HEMOGLOBIN” value [2] was 24.9 pg. The “MEAN CORPUSCULAR HEMOGLOBIN CONCENTRATION” value [2] was 39.73 G/DL, the “MEAN CORPUSCULAR VOLUME” value [2] was 62.7 fL and the MONOCYTE [2] was 0.33%. For the same compound, the NEUTROPHIL [2] was 8.67%, the “NUCLEATED RED BLOOD CELLS” value [2] was 0 /100WBC and the “PLATELET COUNT” value [2] was 1369.67 x10E3/uL. The “ALANINE AMINOTRANSFERASE” value [2] was 42.67 u/L, the ALBUMIN [2] was 3.6 G/DL and the “ALKALINE PHOSPHATASE” value [2] was 345.33 u/L. The “ASPARTATE AMINOTRANSFERASE” value [2] was 79.67 u/L, the “BLOOD UREA NITROGEN” value [2] was 16 mg/dL and the “CARBON DIOXIDE” value [2] was 25.67 mmol/L. For the same compound, the CHLORIDE [2] was 105 MEQ/L, the CHOLESTEROL [2] was 70.67 mg/dL and the “CREATINE PHOSPHOKINASE” value [2] was 215.33 u/L. The CREATININE [2] was 0.14 mg/dL, the GLUCOSE [2] was 166.67 mg/dL and the “LACTATE DEHYDROGENASE” value [2] was 174 u/L. For the same compound, the LIPASE [2] was 9 u/L, the PHOSPHORUS [2] was 10.3 mg/dL and the POTASSIUM [2] was 5.92 MEQ/L. For the same compound, the SODIUM [2] was 144.53 MEQ/L, the “TOTAL BILIRUBIN” value [2] was 0.2 mg/dL and the “TOTAL PROTEIN” value [2] was 5.43 G/DL. For the same compound, the “URIC ACID” value [2] was 1.73 mg/dL, the “ABSOLUTE BASOPHIL” value [3] was 0 CELLS/uL and the “ABSOLUTE EOSINOPHIL” value [3] was 250.33 CELLS/uL. The “ABSOLUTE LYMPHOCYTE” value [3] was 17058 CELLS/uL, the “ABSOLUTE MONOCYTE” value [3] was 0 CELLS/uL and the “ABSOLUTE SEGMENTED NEUTROPHIL” value [3] was 1425 CELLS/uL. For the same compound, the BASOPHIL [3] was 0%, the EOSINOPHIL [3] was 1.33% and the “ERYTHROCYTE COUNT” value [3] was 5.31 x10E6/uL. The HEMATOCRIT [3] was 33.13%, the HEMOGLOBIN [3] was 13.6 G/DL and the “LEUKOCYTE COUNT” value [3] was 18.73 x10E3/uL. For the same compound, the LYMPHOCYTE [3] was 90.33%, the “MEAN CORPUSCULAR HEMOGLOBIN” value [3] was 25.67 pg and the “MEAN CORPUSCULAR HEMOGLOBIN CONCENTRATION” value [3] was 41.03 G/DL. For the same compound, the “MEAN CORPUSCULAR VOLUME” value [3] was 62.53 fL, the MONOCYTE [3] was 0% and the NEUTROPHIL [3] was 8.33%. For the same compound, the “NUCLEATED RED BLOOD CELLS” value [3] was 0 /100WBC, the “PLATELET COUNT” value [3] was 1420 x10E3/uL and the “ALANINE AMINOTRANSFERASE” value [3] was 47.33 u/L. For the same compound, the ALBUMIN [3] was 3.93 G/DL, the “ALKALINE PHOSPHATASE” value [3] was 346 u/L and the “ASPARTATE AMINOTRANSFERASE” value [3] was 73 u/L. The “BLOOD UREA NITROGEN” value [3] was 14.33 mg/dL, the “CARBON DIOXIDE” value [3] was 30 mmol/L and the CHLORIDE [3] was 104 MEQ/L. For the same compound, the CHOLESTEROL [3] was 72.33 mg/dL, the “CREATINE PHOSPHOKINASE” value [3] was 164.33 u/L and the CREATININE [3] was 0.11 mg/dL. For the same compound, the GLUCOSE [3] was 141 mg/dL, the “LACTATE DEHYDROGENASE” value [3] was 161 u/L and the LIPASE [3] was 10 u/L. For the same compound, the PHOSPHORUS [3] was 10.57 mg/dL, the POTASSIUM [3] was 6.08 MEQ/L and the SODIUM [3] was 142.83 MEQ/L. The “TOTAL BILIRUBIN” value [3] was 0.1 mg/dL, the “TOTAL PROTEIN” value [3] was 5.37 G/DL and the “URIC ACID” value [3] was 1.4 mg/dL.

From ChEMBL document CHEMBL3885881, “DrugMatrix”
